Measured values from patent EP1296703B1, “NON-ANTIBACTERIAL TETRACYCLINE AS ANTI-FUNGAL AGENTS” (Liu, Yu, priority 2000, dated 2001).

What was measured:
[1] = Blood levels after oral gavage; set-up: species or system adult rats; details: rat, in vivo
Description: In the treatment of certain localized conditions, the degree of hydrophilicity of the CMT can be of lesser importance. […].

[2] = Solubility in aqueous systems; type: physicochemical
[3] = Toxicity in vivo; details: 2.0 µg/ml concentration
[4] = Testing in cancer patients (side effects); type: in vivo
[5] = system: Penicillium sp. (laboratory isolate); assay: SABHI agar plate growth inhibition screen; type: cell-based; details: for Activity against Penicillium sp. (Example 1): 25 µg/ml SABHI agar; for Growth at 25 µg/ml compared to control at 24 hrs incubation / Growth at 25µg/ml compared to control at 48 hours: Penicillium Sp., 30°C, growth grade
Description: (§1) The following fungi were inoculated onto potato dextrose agar (PDA) from stock cultures and incubated aerobically at 30°C: Aspergillus [NT] 1022, Penicillium sp. (laboratory isolate), Candida albicans, ATCC 14053, and Rhizopus sp. […] Candida albicans was suspended in saline and adjusted to 0.5 MacFarland in a similar manner. These suspensions were diluted 1:100 in sterile 0.9% saline. SABHI Agar (Difco) pH 7.0 was prepared in 100ml amounts and sterilized at 121°C for 15 min. […] The plates were then incubated aerobically for 24 hour and for 48 hours at 30°C.

[6] = system: Aspergillus fumigatus ATCC 1022; assay: SABHI agar plate growth inhibition screen; type: cell-based; details: for Activity against Aspergillus fumigatus (Example 1): 25 µg/ml SABHI agar; for Growth at 25 µg/ml compared to control at 24 hrs incubation / Growth at 25µg/ml compared to control at 48 hours: Aspergillus Fumigatus, 30°C, growth grade
Description: as §1

[7] = system: Rhizopus sp.; assay: SABHI agar plate growth inhibition screen; type: cell-based; details: for Growth at 25 µg/ml compared to control at 24 hrs incubation / Growth at 25µg/ml compared to control at 48 hours: Rhizopus sp., 30°C, growth grade
Description: as §1

[8] = system: Candida albicans, ATCC 14053; assay: SABHI agar plate growth inhibition screen; type: cell-based; details: for Growth at 25 µg/ml compared to control at 24 hrs incubation / Growth at 25µg/ml compared to control at 48 hours: Candida Albicans, 30°C, growth grade; for Activity against Candida albicans (Example 1): 25 µg/ml SABHI agar
Description: as §1

SMILES | Blood levels [1] | Solubility in aqueous systems [2] | Toxicity in vivo [3] | Side effects [4] | Activity against Penicillium sp. (Example 1) [5] | Growth at 25 µg/ml compared to control at 24 hrs incubation [5] | Growth at 25µg/ml compared to control at 48 hours [5] | Activity against Aspergillus fumigatus (Example 1) [6] | Growth at 25 µg/ml compared to control at 24 hrs incubation [6] | Growth at 25µg/ml compared to control at 48 hours [6] | Growth at 25 µg/ml compared to control at 24 hrs incubation [7] | Growth at 25µg/ml compared to control at 48 hours [7] | Growth at 25 µg/ml compared to control at 24 hrs incubation [8] | Growth at 25µg/ml compared to control at 48 hours [8] | Activity against Candida albicans (Example 1) [8] | Activity against Rhizopus sp. (Example 1) ([7]; 25 µg/ml SABHI agar)
CN(C)C1C(=O)C(C#N)=C(O)C2(O)C(=O)C3=C(O)c4c(O)cccc4C(C)(O)C3CC12 (stereo not drawn) [CMT-2, tetracyclinonitrile] | no detectable blood levels | low solubility in aqueous systems | – | – | – | – | – | – | – | – | – | – | – | – | – | –
NC(=O)C1=C(O)C[C@@H]2C[C@@H]3Cc4cccc(O)c4C(=O)C3=C(O)[C@]2(O)C1=O [CMT-3, 6-demethyl-6-deoxy-4-de(dimethylamino)tetracycline] | – | – | very little toxicity | without evidence of side effects, except at unusually high doses | – | – | – | – | – | – | – | – | – | – | – | –
CC1(O)c2c(Cl)ccc(O)c2C(=O)C2=C(O)C3(O)C(=O)C(C(N)=O)=C(O)CC3CC21 (stereo not drawn) [CMT-4, 7-chloro-4-de(dimethylamino)tetracycline] | – | – | – | – | demonstrated activity | 3 (25% reduction in growth of colonies compared to control.) | 0 (complete inhibition of growth.) | demonstrated activity | 0 (complete inhibition of growth.) | 1 (75% reduction in growth in colonies compared to control.) | 4 (Level of growth in the absence of anti-fungal agent (control).) | 4 (Level of growth in the absence of anti-fungal agent (control).) | 1 (75% reduction in growth in colonies compared to control.) | 4 (Level of growth in the absence of anti-fungal agent (control).) | – | –
CC1(O)c2cccc(O)c2C(=O)C2=C(O)C3C(=O)C(C(N)=O)=C(O)CC3CC21 (stereo not drawn) [CMT-7, 4-de(dimethylamino)-12α-deoxytetracycline] | – | – | – | – | – | 3 (25% reduction in growth of colonies compared to control.) | 4 (Level of growth in the absence of anti-fungal agent (control).) | – | 0 (complete inhibition of growth.) | 4 (Level of growth in the absence of anti-fungal agent (control).) | 4 (Level of growth in the absence of anti-fungal agent (control).) | 3 (25% reduction in growth of colonies compared to control.) | 0 (complete inhibition of growth.) | 0 (complete inhibition of growth.) | strong activity | –
NC(=O)C1=C(O)C[C@@H]2C[C@@H]3Cc4ccc(N)c(O)c4C(=O)C3=C(O)[C@]2(O)C1=O [CMT-308] | – | – | – | – | demonstrated activity | 0 (complete inhibition of growth.) | 0 (complete inhibition of growth.) | demonstrated activity | 0 (complete inhibition of growth.) | 1 (75% reduction in growth in colonies compared to control.) | 4 (Level of growth in the absence of anti-fungal agent (control).) | 4 (Level of growth in the absence of anti-fungal agent (control).) | 4 (Level of growth in the absence of anti-fungal agent (control).) | 4 (Level of growth in the absence of anti-fungal agent (control).) | – | –
O=C(NCN1CCNCC1)C1=C(O)C[C@@H]2C[C@@H]3Cc4cccc(O)c4C(=O)C3=C(O)[C@]2(O)C1=O [CMT-315] | – | – | – | – | activity against all the fungi tested | 0 (complete inhibition of growth.) | 0 (complete inhibition of growth.) | activity against all the fungi tested | 0 (complete inhibition of growth.) | 0 (complete inhibition of growth.) | 1 (75% reduction in growth in colonies compared to control.) | 1 (75% reduction in growth in colonies compared to control.) | 0 (complete inhibition of growth.) | 0 (complete inhibition of growth.) | activity against all the fungi tested | activity against all the fungi tested
